Data reported in patent US20130102562A1, “INHIBITION OF CATHEPSIN K ACTIVITY AND THE TREATMENT AND PREVENTION OF DISEASE” (SYLVAN PHARMACEUTICALS PTY LTD., priority 2006, published 2013).
Values belong to the molecule of their own block, whether it stands above or below them.

Legend:
[1] = system: MMP-9 gene expression; assay: MMP9 gene expression by RAW 264.7 cells ± RANKL (RT-PCR); assay type: cell-based, Murine
Protocol: (§1) (iii) RAW 264.7 Cells • Murine macrophage RAW 264.7 cells respond to Receptor Activator NFKB Ligand (RANKL) stimulation to generate bone pit resorptive osteoclasts. • RAW cells were pre-cultured for several days in High-Glucose Dulbecco's Modified Eagles Medium (HG-DMEM) with 10% Fetal Calf Serum (FCS). • Cells were seeded at 250,000 cells/mL in HG-DMEM/10% FCS with/without 20 mg/mL RANKL and increasing doses of PPS (0-50 μg/mL). • Cells were incubated at 37° C., 5% CO2 for 4 days. • The number of multinucleated cells present in each was counted by two observers at day 2, 3 and 4. The cells were then harvested for RNA extraction and subsequent RT-PCR.

[2] = biological target: T1, Cathepsin K (Homo sapiens, UniProt P43235); assay: Cathepsin K bone collagen digests (release of bone collagen, hydroxyproline); assay type: biochemical; conditions: overall conclusion; Cathepsin K mediated release of bone collagen (FIG. 1)
T1 sequence (P43235 115-329): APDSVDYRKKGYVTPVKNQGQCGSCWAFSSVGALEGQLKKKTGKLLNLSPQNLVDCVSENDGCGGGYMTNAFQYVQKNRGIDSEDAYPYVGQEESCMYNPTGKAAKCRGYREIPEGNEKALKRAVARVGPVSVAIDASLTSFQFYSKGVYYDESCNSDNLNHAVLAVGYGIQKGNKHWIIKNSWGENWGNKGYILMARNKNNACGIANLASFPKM
Protocol: Fresh ovine bone was milled in a stainless steel mortar and pestle in liquid nitrogen. The resultant bone powder was defatted, decalcified and freeze-dried before storage at 4° C.
(ii) Cathepsin K Bone Collagen Digests • 2 mg of insoluble bone collagen powder was digested in 100 mM sodium acetate pH 5.5 containing 2.5 mM dithiothreitol and 2.5 mM EDTA with […] Cathepsin K and increasing doses of PPS. • Digestions were incubated at 37° C. for 24 hours and terminated by the addition of 2 μM E84. Residue and supernatant were hydrolysed separately and the hydroxyproline content measured.

[3] = system: RAW 264.7 cells; assay: Multinucleated (OCL) cell count in RAW 264.7 cell cultures ± RANKL; assay type: cell-based, Murine
Protocol: as §1, with “(FCS). • Cells were seeded at 250,000 cells/mL in HG-DMEM/10% FCS with/without 20 mg/mL RANKL and increasing doses of PPS” left out
(iv) H&E Staining • Identical cultures were prepared in petri dishes containing pre-labelled slides and incubated for 4 days, after which slides were carefully rinsed in PBS, immersed in ice-cold acetone and air-dried before freezing. • The slides were then stained with H&E before multinucleated osteoclasts were photographed and counted.

[4] = system: Cathepsin K gene expression; assay: Cathepsin K gene expression by RAW 264.7 cells ± RANKL (RT-PCR); assay type: cell-based, Murine
Protocol: as §1

- Cathepsin K activity [2]: down regulation
Molecule: calcium xylopyranose polysulfate [CaXPS]
- MMP-9 gene expression ([1]; day 4, increasing concentrations of CaXPS in the absence of RANKL (FIG. 5B)): no marked effect
- MMP-9 expression ([1]; day 4, presence of RANKL, 5 μg/mL CaXPS, p<0.05 (FIG. 5B)): decrease
- RANKL-induced multinucleated OCL cell formation ([3]; day 4, 0.5 μg/mL CaXPS vs absence of CaXPS, p<0.05 (FIG. 4B)): significantly more
- RANKL-induced formation of true multinucleated (>4 nuclei/cell) OCL cells ([3]; day 4, 10 μg/mL CaXPS (FIG. 4B)): inhibited
- RANKL-induced formation of true multinucleated (>4 nuclei/cell) OCL cells ([3]; day 4, 50 μg/mL CaXPS (FIG. 4B)): inhibited
- number of cells containing 2-3 nuclei as a percentage total cells ([3]; day 4, 50 μg/mL CaXPS, in the presence of RANKL, p<0.05 (FIG. 4A)): significantly more 2-3 nucleated cells
- number of cells containing 2-3 nuclei as a percentage total cells ([3]; day 4, − vs + RANKL, at most concentrations of CaXPS (FIG. 4A)): still significantly increased
- Cathepsin K gene expression ([4]; day 4, increasing concentrations of CaXPS in the absence of RANKL (FIG. 5A)): no marked effect
- Cathepsin K expression ([4]; day 4, presence of RANKL, lowest dose of CaXPS, p<0.05 (FIG. 5A)): significant increase

B1: RANKL: Receptor Activator NFKB Ligand; stimulates RAW 264.7 cells to generate bone pit resorptive osteoclasts (protein, UniProt O35235 139-316, looked up)
Tumor necrosis factor ligand …: FSGAPAMMEGSWLDVAQRGKPEAQPFAHLTINAASIPSGSHKVTLSSWYHDRGWAKISNMTLSNGKLRVNQDGFYYLYANICFRHHETSGSVPTDYLQLMVYVVKTSIKIPSSHNLMKGGSTKNWSGNSEFHFYSINVGGFFKLRAGEEISIQVSNPSLLDPDQDATYFGAFKVQDID
- expression of MMP-9 by RAW cells ([1]; RANKL alone vs no RANKL (FIG. 5B)): increased
- development of multinucleated cells ([3]; RANKL 20 ng/mL added to RAW cells, by day 3, p<0.05 (FIGS. 2 and 3)): significant development of multinucleated cells
- expression of Cathepsin K by RAW cells ([4]; RANKL alone vs no RANKL (FIG. 5A)): increased
